According to the NIST ThermoML archive (doi:10.1007/s10765-008-0390-4):

Assay: xn = mol fraction of the nth substance listed
Conditions: 101 kPa, Liquid

c1ccccc1 [benzene] + CCCCO
mass density [kg/m3]
Conditions | 288.15 K | 293.15 K | 298.15 K | 303.15 K | 308.15 K | 313.15 K
x2 = 0 | 884.246 | 878.918 | 873.582 | 868.233 | 862.871 | 857.498
x2 = 0.0193 | 882.483 | 877.168 | 871.844 | 866.507 | 861.158 | 855.809
x2 = 0.0534 | 879.595 | 874.309 | 869.007 | 863.694 | 858.36 | 853.019
x2 = 0.1013 | 875.72 | 870.495 | 865.255 | 859.995 | 854.713 | 849.433
x2 = 0.1509 | 871.829 | 866.677 | 861.506 | 856.309 | 851.089 | 845.861
x2 = 0.2016 | 867.984 | 862.908 | 857.807 | 852.685 | 847.536 | 842.375
x2 = 0.2018 | 867.955 | 862.874 | 857.776 | 852.651 | 847.499 | 842.342
x2 = 0.25 | 864.382 | 859.372 | 854.344 | 849.285 | 844.201 | 839.11
x2 = 0.2997 | 860.741 | 855.806 | 850.849 | 845.866 | 840.854 | 835.83
x2 = 0.3532 | 856.936 | 852.081 | 847.201 | 842.294 | 837.357 | 832.4
x2 = 0.4019 | 853.504 | 848.721 | 843.914 | 839.08 | 834.214 | 829.324
x2 = 0.4525 | 850 | 845.3 | 840.574 | 835.817 | 831.029 | 826.217
x2 = 0.4998 | 846.738 | 842.111 | 837.46 | 832.778 | 828.059 | 823.32
x2 = 0.5532 | 843.129 | 838.594 | 834.03 | 829.436 | 824.804 | 820.157
x2 = 0.6004 | 839.985 | 835.529 | 831.042 | 826.525 | 821.974 | 817.402
x2 = 0.6493 | 836.693 | 832.317 | 827.91 | 823.473 | 819.001 | 814.449
x2 = 0.701 | 833.239 | 828.949 | 824.631 | 820.282 | 815.895 | 811.483
x2 = 0.7502 | 829.979 | 825.772 | 821.537 | 817.269 | 812.965 | 808.64
x2 = 0.7945 | 827.051 | 822.92 | 818.759 | 814.569 | 810.343 | 806.094
x2 = 0.8511 | 823.296 | 819.258 | 815.196 | 811.102 | 806.975 | 802.822
x2 = 0.8961 | 820.299 | 816.336 | 812.348 | 808.331 | 804.274 | 800.189
x2 = 0.951 | 816.663 | 812.791 | 808.897 | 804.977 | 801.025 | 797.051

ClC(Cl)Cl [trichloromethane] + CCCCO
mass density [kg/m3]
Conditions | 288.15 K | 293.15 K | 298.15 K | 303.15 K | 308.15 K | 313.15 K
x2 = 0 | 1498.08 | 1488.64 | 1479.15 | 1469.61 | 1460.03 | 1450.41
x2 = 0.0493 | 1458.97 | 1449.82 | 1440.63 | 1431.4 | 1422.12 | 1412.82
x2 = 0.0994 | 1420.12 | 1411.28 | 1402.39 | 1393.45 | 1384.45 | 1375.41
x2 = 0.1499 | 1381.86 | 1373.34 | 1364.77 | 1356.15 | 1347.47 | 1338.76
x2 = 0.2003 | 1344.3 | 1336.11 | 1327.86 | 1319.57 | 1311.21 | 1302.8
x2 = 0.2476 | 1309.65 | 1301.76 | 1293.82 | 1285.82 | 1277.77 | 1269.66
x2 = 0.279 | 1286.97 | 1279.28 | 1271.53 | 1263.75 | 1255.9 | 1248.02
x2 = 0.3474 | 1238.34 | 1231.07 | 1223.75 | 1216.37 | 1208.94 | 1201.48
x2 = 0.4003 | 1201.44 | 1194.48 | 1187.48 | 1180.42 | 1173.31 | 1166.16
x2 = 0.461 | 1159.74 | 1153.14 | 1146.5 | 1139.81 | 1133.06 | 1126.29
x2 = 0.4993 | 1133.81 | 1127.43 | 1121 | 1114.53 | 1108 | 1101.42
x2 = 0.5517 | 1098.6 | 1092.6 | 1086.4 | 1080.3 | 1074 | 1067.8
x2 = 0.5989 | 1067.38 | 1061.55 | 1055.69 | 1049.78 | 1043.81 | 1037.8
x2 = 0.651 | 1033.23 | 1027.7 | 1022.12 | 1016.5 | 1010.82 | 1005.11
x2 = 0.7008 | 1001.03 | 995.76 | 990.45 | 985.097 | 979.698 | 974.26
x2 = 0.7485 | 970.42 | 965.404 | 960.349 | 955.255 | 950.115 | 944.94
x2 = 0.7987 | 938.452 | 933.697 | 928.907 | 924.082 | 919.208 | 914.297
x2 = 0.8495 | 906.492 | 901.999 | 897.472 | 892.91 | 888.303 | 883.67
x2 = 0.8953 | 877.854 | 873.588 | 869.292 | 864.961 | 860.59 | 856.188
x2 = 0.9475 | 845.53 | 841.51 | 837.462 | 833.386 | 829.272 | 825.138
